Measured values taken from US20080199550A1, “Novel Anticancer Agent, Methods for Obtaining the Same and Pharmaceutical Compositions Thereof” (priority 2005, published 2008).
≈ marks a conversion by molar mass, not a printed value.

Assays:
MCF-7 [1] = experiment: Cell viability (MTT) assay; type: cell-based, human
Description: The screening of samples was done in human breast cancer cells (MCF-7, MDA-MB-468, ZR-75-1 and SK-Br-3), human liver carcinoma cells (HepG2), human colon adinocacinoma cells (Colo320 D-M), human acute promylocytic leukemia cells (HL-60), mouse sarcoma cells (Sarcoma 180), mouse melanoma cells (C57/B1/6J). Cells were maintained in DMEM, RPMI 1640(colo320-D-M and HL-60) and Mecoy's medium (SKBr-3) supplemented with 10% Fetal Calf Serum (FCS) and antibiotics (100 IU/ml of penicillin and 100 μg/ml of streptomycin) till they achieved 80% confluence in a humidified atmosphere containing 5% CO2 at 37° C. The cultures were passaged upon confluence on a regular basis. […] Morphological changes in the cells were recorded
It was performed after removal of the culture supernatants; MTT assay was performed to assess the viability of cells. […] The plates were read on a micro plate reader using a reference wavelength of 690 nm and a test wavelength of 540 nm.
For calculation of IC50 value, the data were analyzed by no leaner regression (Curve Fit) analysis using Graph Pad Prism version 4.00. The results of cell proliferation and other parameters were analyzed by one-way ANOVA with Bonferroni's Multiple Comparison Test.

Colo-320 DM = experiment: Cell proliferation assay (trypan blue exclusion); type: cell-based, human
Description: (§1) For assaying the inhibitory effects of the samples on cell proliferation, cancer cells were seeded into a 96-well tissue culture plate at a cell density of 5×10^4 cells per well and incubated with plant extract at different concentrations for 24 hours in a humidified atmosphere containing 5% CO2 at 37° C. The viable and dead cell counts were performed as per trypan blue exclusion method and results were recorded.

MCF-7 [2] = experiment: Cell proliferation assay (trypan blue exclusion); type: cell-based, human
Description: as §1

MDA cells = experiment: Cell proliferation assay (trypan blue exclusion); type: cell-based, human
Description: as §1

cancer cells = experiment: Cell proliferation assay, all the cell lines; type: cell-based
Description: as §1

telomerase = target: T1, telomerase (Homo sapiens, UniProt O14746); experiment: Telo TAGGG Telomerase PCR ELISA; type: cell-based; settings: MCF-7; 6.25 μg/ml; 48 and 72 hours
T1 construct: endogenous in cells; host or cells: MCF-7
Description: In the present study the telomerase activity of the cancer cell were assessed following the treatment with the samples with the help of Telomerase PCR ELISA (Roche, Germany). Cells were plated in a 24 well plate (2×10^5 cells per well) in DMEM supplemented with FBS (10%) and incubated for 48 hours and 72 hours in a humidified atmosphere with 95% air and 5% CO2 at 37° C. with (6.25 μg/ml) or with out (Control) the samples. Cells of the positive control group were treated with paclitaxel at 1.75 μg/ml and incubated as above. This experiment was done in human breast cancer cells (MCF-7). The cell pellets were washed with PBS and resuspended in lysis solution (200 μl) and the debris was pelleted and the supernatant was transferred to a fresh tube. The Telo TAGGG Telomerase PCR ELISA (Roche) was carried as per the manufacturer's protocol. The samples were added to a PCR amplification tube containing reaction mixture (Tris Buffer with telomerase substrate, nucleotides, Taq polymersase biotin labeled primer 1 and primer 2 specific to telomere fragment) and nuclease free water and allowed for elongation for 33 cycles in a Thermal Cycler (MJ Research, PTC 100). […] The reaction was stopped with the help of 1N H2SO4 and was read in an ELISA plate reader at a test wavelength of 450 nm and reference wavelength of 690 nm.

HL-60 cells = experiment: Genomic DNA extraction / DNA fragmentation; type: cell-based, human; settings: 7 ug/ml, 48 h
Description: For assessing the extent of damage to the cellular DNA following the HAC-1 treatment, the cells under investigation were seeded in 25 cm^2 tissue culture flasks at a cell density of 1×10^6 cells per flask and incubated for different time points in a humidified atmosphere containing 5% CO2 at 37° C. The cells after incubation with samples at 7 μg/ml for 24, 48 and 72 hours were pelleted, The cell pelleted were washed with the PBS and incubated in a shaking hot water bath at 37 C. for 1-2 hours with lysis buffer for mammalian DNA extraction. The lysate was then treated with 1.5 volumes of Isopropyl alcohol and the DNA pelleted by centrifuging at […] for 20 minutes The DNA was dissolved in Tris EDTA (TE pH 8.00) and was run on 2% agarose and the visualized with the help of a gel documentation system (Pharmacia) and recorded.

MCF-7 [3] = experiment: DNA integrity assay (acredine orange, fluorescent microscope); type: cell-based, human; settings: end of 48 h of incubation
Description: It was observed by direct visualization under fluorescent microscope. The cell pellets were treated with acredine orange (t 1:10 dilution) and directly visualized under fluorescent microscope under UV spectrum and the changes in the DNA were documented.

MCF-7 cells = experiment: Assay for influence of estrogen; type: cell-based, human; settings: with or without estradiol, 24 h
Description: The efficacy of HAC-1 was studied to assess the hormone dependent or independent activity on cell proliferation. For this purpose MCF-7 cells were initially seeded in a 24 well plate with DMEM supplemented with 10% FCS and incubated for 24 hours in a humidified atmosphere with 5% CO2 and 95% air at 37° C. The cells were then shifted to charcoal striped medium supplemented with 1% bovine albumin serum (BSA,) with or with out the estradiol and HAC-1 and incubated further for a period of 24 h. After the incubation the cell population in each of the groups was recoded by trypan blue exclusion method.

[4] = tested on: NMU induced breast tumours; experiment: N-nitroso-N-methylurea induced model of breast cancer in rats; type: in vivo, rat; settings: 25 mg/kg po daily 3 weeks then 12.5 mg/kg i.p. twice a week 5 weeks, comparable to tamoxifen
Description: A standard protocol for induction of breast cancer in female Sprague-Dawley rats (7 to 8 weeks of age and weight range of 80-100 gms) with a single dose of N-nitroso-N-methylurea (NMU) was used for the study. The rats were obtained from animal facility, R & D center, The Himalaya Drug Company, Bangalore. They were maintained on standard pellet diet (Lipton India Ltd., Mumbai) and water ad libitum. Around 60 rats were selected and NMU was administered intraperitoneally at a dose of 50 mg/kg b.wt. NMU was dissolved in saline and pH adjusted to 4.8. Animals were observed daily to assess general health. […]
Three longest possible diameters were recorded, and tumour volume (cm^3) was calculated using the formula LX W X B.
The variations of the total surface areas of tumors between day 1 and day 57 were analyzed using a two-way ANOVA for repeated measurements. […]

S-180 cells = experiment: Sarcoma bearing mice; type: in vivo, mouse
Description: Adult, male age-matched Swiss albino mice (29-34 g) housed in groups of four to five in plastic cages, received laboratory rodent chow and tap water ad libitum 14 days prior to experimentation in a temperature controlled room with a 12-h dark/light cycle. S-180 cells maintained in the peritoneal cavity of male mice were used for testing the antitumour activity. The cell suspension was diluted to 1.18×10^8 cells/ml, and 0.1 ml of the suspension was inoculated intra-peritoneally into the mice. The tumour-bearing mice were treated, 24 hrs after inoculation, by i.p. injections of 10 and 20 mg/kg of HAC-01 (2 mg/ml with vehicle in physiological saline solution) at the dosage of 0.05 and 0.1 ml/10 gm b.wt. of mouse every other day for 14 days (Total 7 injections). The control group was treated with vehicle in 0.9% NaCl. The mice b.wt. was recorded at 0,4,8, 11,16,18,20,22 and 24th day.
All data were presented as mean ±SD. Statistical significance was evaluated by t test. P<0.05 is considered as statistically significant.
White blood cell (WBC) and differential leukocyte counts were measured from freely flowing tail vein blood of normal control, sarcoma control and HAC-01 treated groups.

T1 sequence (O14746 whole entry): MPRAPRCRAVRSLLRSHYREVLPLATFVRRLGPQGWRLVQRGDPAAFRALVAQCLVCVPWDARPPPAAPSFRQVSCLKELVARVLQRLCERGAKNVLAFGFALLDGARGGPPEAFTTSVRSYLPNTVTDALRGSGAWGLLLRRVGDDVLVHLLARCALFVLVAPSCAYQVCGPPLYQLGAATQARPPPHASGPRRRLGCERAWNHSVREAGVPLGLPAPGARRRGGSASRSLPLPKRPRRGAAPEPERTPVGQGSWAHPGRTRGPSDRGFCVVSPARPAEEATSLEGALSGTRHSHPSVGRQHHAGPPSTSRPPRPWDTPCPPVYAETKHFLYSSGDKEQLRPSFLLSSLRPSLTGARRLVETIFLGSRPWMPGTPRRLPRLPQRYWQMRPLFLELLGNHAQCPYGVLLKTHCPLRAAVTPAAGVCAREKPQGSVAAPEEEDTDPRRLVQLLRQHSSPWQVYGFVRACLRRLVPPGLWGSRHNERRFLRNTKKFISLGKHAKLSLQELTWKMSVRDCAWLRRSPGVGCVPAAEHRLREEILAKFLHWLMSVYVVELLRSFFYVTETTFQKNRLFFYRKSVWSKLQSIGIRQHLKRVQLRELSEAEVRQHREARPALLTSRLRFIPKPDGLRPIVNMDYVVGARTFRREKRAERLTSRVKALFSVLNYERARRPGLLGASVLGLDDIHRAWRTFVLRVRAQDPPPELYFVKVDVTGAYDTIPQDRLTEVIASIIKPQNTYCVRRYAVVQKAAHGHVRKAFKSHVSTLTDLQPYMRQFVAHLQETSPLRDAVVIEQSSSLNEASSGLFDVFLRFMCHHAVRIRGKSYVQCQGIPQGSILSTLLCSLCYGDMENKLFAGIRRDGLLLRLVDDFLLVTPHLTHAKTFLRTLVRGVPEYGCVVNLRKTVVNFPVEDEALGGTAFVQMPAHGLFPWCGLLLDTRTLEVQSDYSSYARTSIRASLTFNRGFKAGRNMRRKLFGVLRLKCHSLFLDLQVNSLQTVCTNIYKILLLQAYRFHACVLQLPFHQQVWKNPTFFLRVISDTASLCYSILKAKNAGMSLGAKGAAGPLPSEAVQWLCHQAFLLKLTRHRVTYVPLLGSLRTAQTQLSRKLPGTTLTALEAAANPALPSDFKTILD

Row | IC50 (MCF-7 [1]) [µg/mL] | telomerase activity compared to control (telomerase) | Compound | effective concentration to induce 50% inhibition of proliferation (Colo-320 DM) [µg/mL] | effective concentration to induce 50% inhibition of proliferation (MCF-7 [2]) [µg/mL] | effective concentration to induce 50% inhibition of proliferation (MDA cells) [µg/mL] | cell proliferation compared to control (cancer cells; all the cell lines, p<0.001 and p<0.01) | apoptosis (DNA pattern) (HL-60 cells) | cells found apoptosed completely (MCF-7 [3]) | influence of estrogen on drug activity (MCF-7 cells) | tumor volume [4] | differential count of WBC (neutrophils, lymphocytes) (S-180 cells; sarcoma bearing mice, 20 mg/kg, i.p.) | weight gain (S-180 cells; tumour bearing mice, i.p. 10 and 20 mg/kg every other day for 14 days) | growth inhibition (cancer cells; at 1.75 μg/ml)
1 | 1.62 (≈ 6.47 µM) | inhibition in the telomarase activity | CC1=C2C3OC(=O)C(C)C3(O)CCC2(C)CCC1 (stereo not shown) [HAC-1, 7-hydroxyeudesm-4-en-6,12-olide] | 2 | 4 | 2 | significantly inhibited | induced apoptosis | more than 80% | drug activity is independent of estrogen | significantly reduced the tumor volume | restore these altered parameters to near normal | significantly reduced the weight gain | –
2 | – | – | CC(=O)O[C@H]1C(=O)[C@@]2(C)[C@H]([C@H](OC(=O)c3ccccc3)[C@]3(O)C[C@H](OC(=O)[C@H](O)[C@@H](NC(=O)c4ccccc4)c4ccccc4)C(C)=C1C3(C)C)[C@]1(OC(C)=O)CO[C@@H]1C[C@@H]2O [paclitaxel, reference compound] | – | – | – | – | – | – | – | – | – | – | marked growth inhibition
